Entries after “also recorded” stand apart in the source; their conditions may differ.

The target in one experiment is T1, PFKFB3 bisphosphatase (Homo sapiens, UniProt Q16875).
T1 construct: His tag (N, cleaved yes); made in house; host or cells: Escherichia coli BL21 (DE3) Plys
Put plainly: PFKFB3 bisphosphatase activity by LC-MS/MS quantitation of F6P. In kind it is biochemical. The following applies: for Effect on bisphosphatase activity / substrate conversion rate vs enzyme alone: Dunnett's multiple comparisons test (two-way ANOVA); for h, Hill coefficient (PFKFB3 in presence of compound) / Vmax (Hill equation, PFKFB3 in presence of compound): Hill fit of bisphosphatase kinetics; for h, Hill coefficient (PFKFB3 in presence of compound): enzyme alone 2.03; for Vmax (Hill equation, PFKFB3 in presence of compound): maximum velocity at enzyme saturation, enzyme alone 0.16; for Enzyme velocity: enzyme 100 nM, compound at 50 µM or equal to its KD, 18 h at 37 °C, Tris buffer pH 8, LC-MS/MS of F6P; for Khalf (Hill equation, PFKFB3 in presence of compound): substrate concentration giving half of maximum velocity, enzyme alone 21.51, in µM (unit assumed). The procedure: HPLC grade water (18 MΩ) was prepared with a Milli-Q purification system (Millipore, Milan, IT). Ammonium formate, fructose-6-phosphate (F6P), Tris HCl, glycerol, 2-mercaptoethanol, sodium phosphate and Amicon-ultra centrifugal filters (30 kDa) were purchased from Sigma Aldrich. F2,6BP was kindly provided by Prof. Lisardo Boscá from Spanish National Research Council in Madrid, Spain. Compound AZ 33 was provided by Carlo DeDominicis, University of Aberdeen. Phosphatase activity of PFKFB3 was measured by quantitation of the reaction product (i.e. F6P) by means of liquid chromatography tandem mass spectrometry. Enzyme reaction rate was determined after 18 h of incubation at 37 °C in sterile (0.22 µm filtered) Tris buffer (20 mM Tris-HCl pH 8; 10 mM sodium phosphate; 5 mM 2-mercaptoethanol and 5% of glycerol) at a final enzyme concentration of 100 nM. Both the enzyme and the substrate (i.e. fructose-2,6-bisphosphate, F2,6BP) were pre-warmed at 37 °C for five min before starting the kinetics by spiking the substrate into the enzyme solution. To plot the enzyme kinetics, the reaction rate was measured in independent experiments at different concentration of substrate (i.e. 5, 10, 15, 20, 25, 30, 40 and 50 µM). Diafiltration on amicon-ultra filters (30 kDa MWCO) was used to stop the reactions. Both the residual substrate and the product were collected in the filtrate, while the enzyme was retained by the filter. The same protocol was used to measure the effect of ligands on enzyme phosphatase activity. For such a purpose the reaction rate was measured at the same substrate concentrations, but the enzyme was incubated with the compound and pre-warmed before starting the kinetics. Compounds were incubated with the enzyme at a concentration 50 µM or equal to their KD, if available. Independent analyses were done without the enzyme (i.e. controls) to assess any degradation of the substrate in the same experimental condition used for the enzyme kinetics. The concentration of the […] produced by the kinetics was determined by interpolation with a calibration curve obtained by the analysis of fructose-6-phosphate standards prepared in a concentration range between 0.5 µM and 50 µM. The velocity was calculated as nanomoles of F6P produced in one min by a nanomole of PFKFB3, subtracting the nanomoles of F6P produced by self-degradation of the substrate from the nanomoles of F6P produced by the enzyme kinetic.
Quantitation of F6P produced was provided by a Surveyor HPLC system connected to a TSQ Quantum Ultra triple quadrupole mass spectrometer by a Finnigan IonMax electrospray ionization (ESI) source assembled with a high flow stainless steel emitter (Thermo Scientific, Rodano, MI, Italy). Filtrate containing the kinetics products were diluted 1:4 in water and placed into the autosampler rack, which was cooled at 8 °C to prevent sample degradation during analyses. […] Table 1 reports the mobile phases and gradient program used for the elution.
The flow from the column was directly sprayed into the mass spectrometer with no further splitting. Nebulization and ionization were achieved by 70 units of sheath gas, 25 units of auxiliary gas, a capillary temperature of 270 °C and a spray voltage of −4.5 kV. The analyzer was set to scan the negative ions reported in Table 2 in Multiple Reaction Monitoring mode (MRM), with a scan time of 0.05 seconds and a resolution of 0.5 m/z for both the first and the third quadrupoles. The MRM transitions reported in Table 2 were previously optimized in a semi-automatic mode to achieve the best instrumental response and selectivity for fructose-6-phosphate, by flow injection of a standard solution.
In order to determine the effect of the PFKFB3-binding compounds on the bisphosphatase activity, a LC-MS/MS analytical method was developed. Firstly, separate kinetics were measured for the enzyme alone or equilibrated with compounds 4–8. […]

Experiment [1] addresses T2, RED-NHS labeled recombinant PFKFB3 (Homo sapiens, UniProt Q16875).
T2 construct: His tag (N, cleaved yes); made in house; host or cells: Escherichia coli BL21 (DE3) Plys
The experiment can be described thus: Microscale thermophoresis (MST) binding assay. The following applies: for Binding Affinity: 100 nM RED-NHS labeled PFKFB3, 20 min at room temperature, Table 3; for KD: Table S3, list of synthesized peptides from VS. The procedure: The PFKFB3 plasmid was provided by Prof. Yong-Hwan Lee from Louisiana State University. The His-tagged human inducible bifunctional enzyme (GenBank code: AF056320.1) was expressed in Escherichia coli BL21 (DE3) Plys as reported previously. The PFKFB3 protein was purified using nickel affinity columns and the N-terminal His tag was removed using a standard protocol. After the treatment with thrombin the protein was eluted with an anion-exchange column. The pure protein was concentrated to 2–10 mg/mL and stored in 20 mM Tris HCl pH 8.0, 10 mM NaPi, 5 mM β-mercaptoethanol and 5% glycerol.
The dissociation constant was determined using Nanotemper microscale thermophoresis (MST)[38]. In a typical experiment, a compound was dissolved in MST buffer and mixed with 100 nM RED-NHS labeled recombinant PFKFB3 in 1:1 ratio. The mixture was incubated at room temperature for 20 min. and a full MST measurement was performed. Data were analyzed with Nanotemper software (https://nanotempertech.com/monolith/).
(Microscale thermophoresis detects binding through changes in fluorescence in a small temperature gradient.)

Setting [2] is: substrate F2,6BP 20 µM, asterisks = significance vs enzyme alone (two-way ANOVA, Dunnett).
Where [3] appears, read: substrate F2,6BP 25 µM, asterisks = significance vs enzyme alone.
Where [4] appears, read: substrate F2,6BP 30 µM, asterisks = significance vs enzyme alone.
The mark [5] stands for this setting: substrate F2,6BP 40 µM, asterisks = significance vs enzyme alone.
Where [6] appears, read: substrate F2,6BP 50 µM, asterisks = significance vs enzyme alone.

T2 sequence (Q16875 whole entry): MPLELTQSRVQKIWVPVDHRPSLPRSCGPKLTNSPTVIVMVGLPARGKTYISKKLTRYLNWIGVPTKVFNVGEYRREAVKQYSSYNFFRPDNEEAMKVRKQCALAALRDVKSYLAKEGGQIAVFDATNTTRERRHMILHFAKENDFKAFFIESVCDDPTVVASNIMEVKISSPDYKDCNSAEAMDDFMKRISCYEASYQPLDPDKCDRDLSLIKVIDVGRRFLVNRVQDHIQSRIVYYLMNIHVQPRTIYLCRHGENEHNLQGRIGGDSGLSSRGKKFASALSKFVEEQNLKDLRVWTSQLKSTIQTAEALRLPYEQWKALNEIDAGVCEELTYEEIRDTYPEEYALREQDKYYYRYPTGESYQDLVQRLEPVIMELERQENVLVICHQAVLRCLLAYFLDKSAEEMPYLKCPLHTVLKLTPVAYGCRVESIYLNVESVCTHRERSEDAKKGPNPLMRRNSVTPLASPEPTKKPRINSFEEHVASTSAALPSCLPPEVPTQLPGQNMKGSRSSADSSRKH
T1 sequence (Q16875 whole entry): as above

As to `CC(C)C[C@H](NC(=O)[C@H](Cc1ccccc1)NC(=O)CNC(=O)[C@H](CO)NC(=O)[C@@H](N)Cc1ccc(O)cc1)C(=O)N[C@H](C(=O)O)[C@@H](C)O` [Compound 4], the “Effect on bisphosphatase activity / substrate conversion rate vs enzyme alone” value on PFKFB3 bisphosphatase is recorded as “no significant variations”. For the same compound, the “h, Hill coefficient (PFKFB3 in presence of compound)” value (“h, Hill coefficient” for short) at PFKFB3 bisphosphatase is 2.39. The “Vmax (Hill equation, PFKFB3 in presence of compound)” value (from here on “Vmax”) on PFKFB3 bisphosphatase is 0.18. The Enzyme velocity on PFKFB3 bisphosphatase (setting [2]) is 0.05 ± 0.03 nmol/min of F6P per nmol of enzyme; at PFKFB3 bisphosphatase (setting [3]) it was 0.07 ± 0.04 nmol/min of F6P per nmol of enzyme; on PFKFB3 bisphosphatase (setting [4]), 0.12 ± 0.03 nmol/min of F6P per nmol of enzyme; on PFKFB3 bisphosphatase (setting [5]), 0.13 ± 0.04 nmol/min of F6P per nmol of enzyme; on PFKFB3 bisphosphatase (setting [6]) it was 0.14 ± 0.01 nmol/min of F6P per nmol of enzyme. Further, at PFKFB3 bisphosphatase, the “Khalf (Hill equation, PFKFB3 in presence of compound)” value (“Khalf” for short) was found to be 26.54.

Regarding SFLLRN-CONH2 [Compound 7], in experiment [1], the “Binding Affinity” value was “not able to bind the enzyme; also recorded: No evidence of binding” and the KD result was “No binding”. In addition, on PFKFB3 bisphosphatase, the “Effect on bisphosphatase activity / substrate conversion rate vs enzyme alone” value is “no significant variations”; the “h, Hill coefficient” value is 1.95; the “Vmax” value turned out to be 0.19; the “Khalf” value is on record as 28.12. In addition, on PFKFB3 bisphosphatase (setting [2]), the Enzyme velocity is 0.07 ± 0.01 nmol/min of F6P per nmol of enzyme. For the same compound, the Enzyme velocity on PFKFB3 bisphosphatase (setting [3]) was 0.07 ± 0.04 nmol/min of F6P per nmol of enzyme. For the same compound, the Enzyme velocity on PFKFB3 bisphosphatase (setting [4]) is 0.11 ± 0.04 nmol/min of F6P per nmol of enzyme. The Enzyme velocity at PFKFB3 bisphosphatase (setting [5]) is 0.14 ± 0.01 nmol/min of F6P per nmol of enzyme. In addition, at PFKFB3 bisphosphatase (setting [6]), the Enzyme velocity is given as 0.14 ± 0.01 nmol/min of F6P per nmol of enzyme.

As to Trp-Gly-Tyr [Compound 8], the “Binding Affinity” value in experiment [1] is given as “not able to bind the enzyme; also recorded: No evidence of binding”. Moreover, in experiment [1], the KD result is on record as “No binding”. Moreover, the “Effect on bisphosphatase activity / substrate conversion rate vs enzyme alone” value on PFKFB3 bisphosphatase is recorded as “no significant variations”. For the same compound, at PFKFB3 bisphosphatase, the “h, Hill coefficient” value came out at 2.24. The “Vmax” value at PFKFB3 bisphosphatase is given as 0.21. Further, the Enzyme velocity on PFKFB3 bisphosphatase (setting [2]) is 0.06 ± 0.03 nmol/min of F6P per nmol of enzyme; on PFKFB3 bisphosphatase (setting [3]) it was 0.05 ± 0.00 nmol/min of F6P per nmol of enzyme; at PFKFB3 bisphosphatase (setting [4]), 0.10 ± 0.01 nmol/min of F6P per nmol of enzyme; at PFKFB3 bisphosphatase (setting [5]) it was 0.14 ± 0.05 nmol/min of F6P per nmol of enzyme; on PFKFB3 bisphosphatase (setting [6]) it was 0.14 ± 0.04 nmol/min of F6P per nmol of enzyme. Also, the “Khalf” value on PFKFB3 bisphosphatase is on record as 32.83.

The record behind these values is publication PMC6937325, “Tuning PFKFB3 Bisphosphatase Activity Through Allosteric Interference” (Scientific Reports, 2019).
